Measured values from paper PMC11768739 (Viruses, 2025).
Where two headings read alike, the source gives them in different places.

How the values were obtained:
EV68-3C protease [1] = target: T1, EV68-3C protease (enterovirus D68, UniProt A1E4A3); assay: FRET peptide cleavage assay (DABCYL/EDANS 10-mer, 2C/3A site); format: biochemical
EV68-3C protease [2] = target: T1, EV68-3C protease; assay: as above; format: biochemical; conditions: covalent (irreversible); 60 min preincubation; 25 nM enzyme; 10 μM substrate; 50 mM HEPES pH 7.5, 100 mM NaCl, 3% DMSO; unreliable is not stated

T1 sequence (A1E4A3 entry or part of it): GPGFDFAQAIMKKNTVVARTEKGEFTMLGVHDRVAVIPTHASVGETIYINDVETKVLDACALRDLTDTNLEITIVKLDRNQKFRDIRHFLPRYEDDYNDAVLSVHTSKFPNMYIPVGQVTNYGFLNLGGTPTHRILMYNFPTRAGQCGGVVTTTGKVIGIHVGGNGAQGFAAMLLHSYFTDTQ

Work on `COc1cccc2[nH]c(C(=O)N[C@@H](CC(C)C)C(=O)N[C@@H](C[C@@H]3CCNC3=O)C(=O)CO)cc12` [PF-00835231] yielded an IC50 (EV68-3C protease [1]) of 1800 ± 200 nM.

With `Cn1cnc(Cn2c(=O)[nH]/c(=N\c3cc4cn(C)nc4cc3Cl)n(Cc3cc(F)c(F)cc3F)c2=O)n1` [ensitrelvir] the IC50 (EV68-3C protease [1]) was > 10000 nM.

In the case of `CC(C)(C)[C@H](NC(=O)C(F)(F)F)C(=O)N1C[C@H]2[C@@H]([C@H]1C(=O)N[C@H](C#N)C[C@@H]1CCNC1=O)C2(C)C` [nirmatrelvir], the IC50 (EV68-3C protease [1]) is reported as > 10000 nM.

For `CCOC(=O)/C=C/[C@H](C[C@@H]1CCNC1=O)NC(=O)[C@@H](CC(=O)[C@@H](NC(=O)c1cc(C)on1)C(C)C)Cc1ccc(F)cc1` [rupintrivir], the “IC50” value (EV68-3C protease [2]) was 7.8 ± 0.6 nM.
